Assay results as given in patent EP0512754B1 (AMERICAN HOME PRODUCTS CORPORATION, priority 1991, dated 1992).
Where two headings read alike, the source gives them in different places.

Assays:
[1] = system: mixed lymphocyte reaction; assay: popliteal lymph node (PLN) test procedure, in vivo mixed lymphocyte reaction; set-up: species or system C3H mice; settings: for PLN Activity relative to Rapamycin: ratio to rapamycin
Procedure: (§1) Immunosuppressive activity was evaluated in an in vitro standard pharmacological test procedure to measure lymphocyte proliferation (LAF) and in two in vivo standard pharmacological test procedures. The first in vivo procedure was a popliteal lymph node (PLN) test procedure which measured the effect of compounds of this invention on a mixed lymphocyte reaction and the second in vivo procedure evaluated the survival time of a pinch skin graft.
A mixed lymphocyte reaction (MLR) occurs when lymphoid cells from genetically distinct animals are combined in tissue culture. Each stimulates the other to undergo blast transformation which results in increased DNA synthesis that can be quantified by the incorporation of tritiated thymidine. Since stimulating a MLR is a function of disparity at Major Histocompatibility antigens, an in vivo popliteal lymph node (PLN) test procedure closely correlates to host vs. graft disease. Briefly, irradiated spleen cells from BALB/c donors are injected into the right hind foot pad of recipient C3H mice. […] On Day 3 and Day 4, tritiated thymidine is given i.p., b.i.d. On Day 5, the hind popliteal lymph nodes are removed and dissolved, and radioactivity counted. The corresponding left PLN serves as the control for the PLN from the injected hind foot. Percent suppression is calculated using the non-drug treated animals as allogenic control.

[2] = system: Candida albicans 3669; assay: plate test procedure for antifungal activity; format: cell-based; settings: strain 3669
Procedure: (§2) Antifungal activity of the compounds of this invention was measured against 5 strains of Candida albicans using a plate test procedure for measurement of inhibition. The following represents the typical procedure used. The compound to be tested was placed on sterile dried 1/4" plate disks, and allowed to dry. Agar plates were seeded with fungi and allowed to solidify. The impregnated disks were placed on the seeded Agar surface and incubated for the time required for the particular culture. Results are expressed in MIC (µg/ml) to inhibit growth.
(§3) The compounds of Examples 1 and 4 had the following minimal inhibitory concentrations (50%) against 5 strains of Candida albicans.

[3] = system: Candida albicans ATCC 38247; assay: plate test procedure for antifungal activity; format: cell-based; settings: strain ATCC 38247
Procedure: as §2, §3

[4] = system: Candida albicans ATCC 38248; assay: plate test procedure for antifungal activity; format: cell-based; settings: strain ATCC 38248
Procedure: as §2, §3

[5] = system: Candida albicans ATCC 38246; assay: plate test procedure for antifungal activity; format: cell-based; settings: strain ATCC 38246
Procedure: as §2, §3

[6] = system: Candida albicans ATCC 10231; assay: plate test procedure for antifungal activity; format: cell-based; settings: strain ATCC 10231
Procedure: as §2, §3

[7] = system: pinch skin graft from male DBA/2 donors transplanted to male BALB/c recipients; assay: pinch skin graft survival time; format: in vivo; settings: DBA/2 donors to BALB/c recipients, treated intraperitoneally; mean ± S.D.
Procedure: as §1
The second in vivo test procedure is designed to determine the survival time of pinch skin graft from male DBA/2 donors transplanted to male BALB/c recipients. The method is adapted from Billingham R.E. and Medawar P.B., J. Exp. Biol. 28:385-402, (1951). Briefly, a pinch skin graft from the donor is grafted on the dorsum of the recipient as a homograft, and an autograft is used as control in the same region. […] Untreated recipients serve as rejection control. The graft is monitored daily and observations are recorded until the graft becomes dry and forms a blackened scab. This is considered as the rejection day. The mean graft survival time (number of days ± S.D.) of the drug treatment group is compared with the control group.

[8] = system: cells from the thymus of normal BALB/c mice; assay: comitogen-induced thymocyte proliferation procedure (LAF); format: cell-based; settings: read-out: LAF IC50
Procedure: as §1
The comitogen-induced thymocyte proliferation procedure (LAF) was used as an in vitro measure of the immunosuppressive effects of representative compounds. Briefly, cells from the thymus of normal BALB/c mice are cultured for 72 hours with PHA and IL-1 and pulsed with tritiated thymidine during the last six hours. […] Cells are harvested and incorporated; radioactivity is determined. Inhibition of lymphoproliferation is assessed in percent change in counts per minute from non-drug treated controls. […] (()^3 (H-control thymus cells - H)^3 rapamycin-treated thymus cells)/(()^3 (H-control thymus cells - H)^3 -test compound-treated cells) [formula]

[9] = thymocytes cultured 72 hours with PHA and IL-1, tritiated thymidine incorporation
[10] = Mus musculus, Thymocyte, 72 h, thymocytes cultured 72 hours with PHA and IL-1, tritiated thymidine incorporation

33-Deoxy-33-hydroxyrapamycin [Example 4]
PLN Activity relative to Rapamycin ([1]; route not printed in the cell (method: daily p.o. Day 0 to Day 4)): 0.59 | Anti-Candida Activity, Minimal Inhibitory Concentration (50%) [2]: 0.25 µg/mL | Anti-Candida Activity, Minimal Inhibitory Concentration (50%) [3]: 0.03 µg/mL | Anti-Candida Activity, Minimal Inhibitory Concentration (50%) [4]: 0.006 µg/mL | Anti-Candida Activity, Minimal Inhibitory Concentration (50%) [5]: >0.4 µg/mL | Anti-Candida Activity, Minimal Inhibitory Concentration (50%) [6]: 0.05 µg/mL | Skin Graft Mean survival days [7]: 10.0 days | IC50 [8, 9]: 4700 pM

CO[C@H]1C[C@@H]2CC[C@@H](C)[C@@](O)(O2)C(O)C(=O)N2CCCC[C@H]2C(=O)O[C@H]([C@H](C)C[C@@H]2CC[C@@H](O)[C@H](OC)C2)CC(O)[C@H](C)/C=C(\C)[C@@H](O)[C@@H](OC)C(=O)[C@H](C)C[C@H](C)/C=C/C=C/C=C/1C (single isomer, unassigned) [Example 2, 15,27-di(deoxo)-15,27-di(hydroxy)rapamycin]
Skin Graft Mean survival days [7]: 9.2 ± 0.41 days | IC50 [8, 10]: 670 pM

CO[C@H]1C[C@@H]2CC[C@@H](C)[C@@](O)(O2)C(O)C(=O)N2CCCC[C@H]2C(=O)O[C@H]([C@H](C)C[C@@H]2CC[C@@H](O)[C@H](OC)C2)CC(O)[C@H](C)/C=C(\C)[C@@H](O)[C@@H](OC)C(=O)[C@H](C)C[C@H](C)/C=C/C=C/C=C/1C (single isomer, unassigned) [Example 3, 15,27-di(deoxo)-15,27-di(hydroxy)rapamycin]
PLN Activity relative to Rapamycin ([1]; ip): 0.92 ip | Skin Graft Mean survival days [7]: 9.5 ± 5.5 days | IC50 [8, 9]: 840 pM

CO[C@H]1C[C@@H]2CC[C@@H](C)[C@@](O)(O2)C(O)C(=O)N2CCCC[C@H]2C(=O)O[C@H]([C@H](C)C[C@@H]2CC[C@@H](O)[C@H](OC)C2)CC(=O)[C@H](C)/C=C(\C)[C@@H](O)[C@@H](OC)C(=O)[C@H](C)C[C@H](C)/C=C/C=C/C=C/1C (stereo partly shown) [Example 1, 15-Deoxo-15-hydroxyrapamycin]
PLN Activity relative to Rapamycin ([1]; ip): -0.07 | PLN Activity relative to Rapamycin ([1]; po): -2.47 | Skin Graft Mean survival days [7]: 9.8 ± 1.0 days | IC50 [8, 10]: 580 pM

CO[C@H]1C[C@@H]2CC[C@@H](C)[C@@](O)(O2)C(=O)C(=O)N2CCCC[C@H]2C(=O)O[C@H]([C@H](C)C[C@@H]2CC[C@@H](O)[C@H](OC)C2)CC(=O)[C@H](C)/C=C(\C)[C@@H](O)[C@@H](OC)C(=O)[C@H](C)C[C@H](C)/C=C/C=C/C=C/1C [Rapamycin, reference compound]
Percent suppression (PLN) ([1]; 6 mg/kg, p.o., against non-drug treated allogenic control): 86% | IC50 ([8]; Mus musculus, Thymocyte, 72 h): 3300 pM
